Data as given in patent publication US4940713A, “Substituted glutamic acids” (Burroughs Wellcome Co., priority 1988, dated 1990).
Read-outs that look alike come from different tables or passages of the source.

Experiments:
yellow fever virus = details: in words
Streptococcus faecium = experiment: Activity against Streptococcus faecium; assay type: cell-based; details: in words
Spiroplasma citri = experiment: Activity Against Spiroplasma citri, Sensitivity Test; assay type: cell-based; details: in words
Protocol: Frozen broth cultures are diluted to a predetermined titre of 100 color changing units for the test. Organisms are grown in Difco PPLO broth base with added serum, glucose, phenol red, ampicillin, thallium acetate and yeast extract. Incubation is at 32° C. Incubation with varying levels of the test compound in the above medium are performed in well plates and an amount of Spiroplasma citri cells is added that will produce a color change by a fixed time of growth. The lowest concentration of compound that fails to produce a color change or gives a two day delay in color change indicates minimum inhibitory concentration.

Lactobacillus casei = experiment: Activity against Lactobacillus casei; assay type: cell-based; details: in words
[1] = test system: MCF-7 breast adenocarcinoma; experiment: Cytotoxicity Assay, MCF-7 (MTT dye reduction assay); assay type: cell-based; details: 72 hours
Protocol: Cells and Medium: MCF-7 breast adenocarcinoma, obtained from the American Type Culture Collection (ATCC) is grown in RPMI 1640 medium supplemented with 10 nM calcium leucovorin instead of folic acid as the folate source, 10% dialyzed fetal calf serum, penicillin, streptomycin and sodium pyruvate (110 μg/ml).
Cytotoxicity Assay: Cells are seeded into 96 well plates using a Perkin Elmer Pro/pette. MCF-7 cells are seeded at 15,000 cells per well in 150 μl of medium. Prior to the addition of drugs, cultures were incubated for 24 hours at 37°. Compounds were added at 2× concentration in 150 μl of medium and each concentration was assayed in triplicate. Cultures were incubated for 72 hours in a 37° humidified incubator at 5% CO2. Inhibition of cell growth was measured using the MTT dye reduction assay.
MTT Dye Reduction Assay: Cell dilutions for a standard curve were prepared from a 72 hour log-phase culture. Serial dilutions were seeded in triplicate in 96 well plates and incubated at 37° for 1 hour. MTT (3-(4,5-dimethylthiazol-2-yl)-2,5-diphenyltetrazolium bromide) was dissolved in phosphate buffered saline at 5 mg/ml and sonicated for 30 seconds. Using the Perkin Elmer Pro/pette, 200 μl of medium was removed and 100 μl of MTT added to the wells of the standard curve and test plates. Suspension cultures were spun for 5 minutes at 1000 rpm before removing medium from the wells. Plates were incubated for 1 hour at 37° on a platform shaker. Following this incubation, 100 μl of medium was removed from the wells and 100 μl of DMSO added to each well. The plates were sonicated for approximately 10 seconds to solubilize the precipitated formazan dye. The absorbance of each well was measured using a Titertek Multiskan MC microtiter plate reader at 570 nm with a reference wavelength of 750 nm.

mouse L cells [2] = test system: mouse L cells
mouse L cells [3] = experiment: Reversal of Cytotoxic Activity on mouse L cells
[4] = Stability on extended exposure to light; assay type: physicochemical; details: white powder

## Nc1nc(N)c(CCCNc2ccc(C(=O)N[C@@H](CCC(=O)O)C(=O)O)cc2)c(=O)[nH]1 [Example 1, N-[4-[3-(2,4-diamino-1,6-dihydro-6-oxo-5-pyrimidinyl)propylamino]benzoyl]-L-glutamic acid]
Yellow fever virus
  activity against yellow fever virus: some activity against yellow fever virus
Streptococcus faecium
  activity against Streptococcus faecium: possess activity against certain bacterial organisms
Spiroplasma citri
  activity against Spiroplasma citri: activity against the mycoplasma, Spiroplasma citri
Lactobacillus casei
  activity against Lactobacillus casei: possess activity against certain bacterial organisms
[1]
  inhibiting the growth of MCF-7 cells: active in inhibiting the growth of MCF-7 cells

## Nc1nc2c(c(=O)[nH]1)N(C=O)C(CNc1ccc(C(=O)N[C@@H](CCC(=O)O)C(=O)O)cc1)CN2 (stereo partly shown) [calcium leucovorin]
Mouse L cells [2]
  reversal of the cytotoxicity of the compound of Example 1: able to reverse the cytotoxicity of the compound of Example 1
  reversal of the cytotoxicity of the compound of Example 3: able to reverse the cytotoxicity of the compound of Example 3

## Nc1nc(N)c(CCCN(C=O)c2ccc(C(=O)N[C@@H](CCC(=O)O)C(=O)O)cc2)c(=O)[nH]1 [Example 3, N-[4-[3-(2,4-Diamino-1,6-dihydro-6-oxo-5-pyrimidinyl)-N-formylpropylamino]benzoyl]-L-glutamic acid]
Yellow fever virus
  activity against yellow fever virus: some activity against yellow fever virus
Spiroplasma citri
  activity against Spiroplasma citri: activity against the mycoplasma, Spiroplasma citri
[1]
  inhibiting the growth of MCF-7 cells: active in inhibiting the growth of MCF-7 cells

## CN(CCCc1c(N)nc(N)[nH]c1=O)c1ccc(C(=O)N[C@@H](CCC(=O)O)C(=O)O)cc1 [Example 2, N-[4-[3-(2,4-diamino-1,6-dihydro-6-oxo-5-pyrimidinyl)-N-methylpropylamino]benzoyl]-L-glutamic acid]
Spiroplasma citri
  activity against Spiroplasma citri: activity against the mycoplasma, Spiroplasma citri
[1]
  inhibiting the growth of MCF-7 cells: active in inhibiting the growth of MCF-7 cells

## NC(=O)c1ncn([C@@H]2O[C@H](COP(=O)(O)O)[C@@H](O)[C@H]2O)c1N [AICAR, 5-aminoimidazole-4-carboxamide ribonucleotide]
Mouse L cells [3]
  reversal of the cytotoxicity of the compound of Example 3: able to reverse the cytotoxicity of the compound of Example 3

## O=c1[nH]cnc2nc[nH]c12 [hypoxanthine]
Mouse L cells [2]
  reversal of the cytotoxicity of the compound of Example 1: able to reverse the cytotoxicity of the compound of Example 1
  reversal of the cytotoxicity of the compound of Example 3: able to reverse the cytotoxicity of the compound of Example 3

## CN(CCc1c(N)nc(N)[nH]c1=O)c1ccc(C(=O)N[C@@H](CCC(=O)O)C(=O)O)cc1 [Example 5, N-[4-[2-(2,4-diamino-1,6-dihydro-6-oxo-5-pyrimidinyl)ethyl-N-methylamino]benzoyl]-L-glutamic acid]
[4]
  appearance upon extended exposure to light: became tan upon extended exposure to light
